Laboratory results reported in patent US12077503B2, “Substituted cyclic amides and their use as herbicides” (FMC CORPORATION, priority 2015, dated 2024).

Legend:
Type in all cases: in vivo
Kochia (Kochia scoparia) [1] = assay: Test A postemergence; details: Bassia scoparia, post-emergence, 240 h
Procedure, shortened: (§1)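 Each rating is a visual injury score from 0 to 100 given about 10 d after treatment, judged against untreated controls kept alongside in the greenhouse. In loam soil–sand blend, seeds got a preemergence directed soil spray, while postemergence plants were 2 to 10 cm tall at spraying.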

[2] = system: wheat (Triticum aestivum); assay: Test A postemergence; details: Triticum aestivum, post-emergence, 240 h
Procedure, shortened: as §1

[3] = system: barnyardgrass (Echinochloa crus-galli); assay: Test A postemergence; details: Echinochloa crus-galli, post-emergence, 240 h
Procedure, shortened: as §1

[4] = system: ryegrass, Italian (Italian ryegrass, Lolium multiflorum); assay: Test A postemergence; details: Lolium multiflorum, post-emergence, 240 h
Procedure, shortened: as §1

[5] = system: ragweed (common ragweed, Ambrosia elatior); assay: Test A postemergence; details: Ambrosia artemisiifolia, post-emergence, 240 h
Procedure, shortened: as §1

corn (Zea mays) = assay: Test A postemergence; details: Zea mays, post-emergence, 240 h
Procedure, shortened: as §1

[6] = system: blackgrass (Alopecurus myosuroides); assay: Test A postemergence; details: Alopecurus myosuroides, post-emergence, 240 h
Procedure, shortened: as §1

[7] = system: giant foxtail (Setaria faberii); assay: Test A postemergence; details: Setaria faberi, post-emergence, 240 h
Procedure, shortened: as §1

[8] = system: pigweed (Amaranthus retroflexus); assay: Test A postemergence; details: Amaranthus retroflexus, post-emergence, 240 h
Procedure, shortened: as §1

Kochia (Kochia scoparia) [9] = assay: Test A preemergence; details: Bassia scoparia, pre-emergence, 240 h, 0 to 100 scale where 0 is no effect and 100 is complete control, read-out: Kochia plant response rating
Procedure, shortened: as §1

[10] = system: barnyardgrass (Echinochloa crus-galli); assay: Test A preemergence; details: Echinochloa crus-galli, pre-emergence, 240 h, 0 to 100 scale where 0 is no effect and 100 is complete control, read-out: Barnyardgrass plant response rating
Procedure, shortened: as §1

[11] = system: ryegrass, Italian (Italian ryegrass, Lolium multiflorum); assay: Test A preemergence; details: Lolium multiflorum, pre-emergence, 240 h, 0 to 100 scale where 0 is no effect and 100 is complete control, read-out: Ryegrass, Italian plant response rating
Procedure, shortened: as §1

[12] = system: ragweed (common ragweed, Ambrosia elatior); assay: Test A preemergence; details: Ambrosia artemisiifolia, pre-emergence, 240 h, 0 to 100 scale where 0 is no effect and 100 is complete control, read-out: Ragweed plant response rating
Procedure, shortened: as §1

[13] = system: giant foxtail (Setaria faberii); assay: Test A preemergence; details: Setaria faberi, pre-emergence, 240 h, 0 to 100 scale where 0 is no effect and 100 is complete control, read-out: Foxtail, Giant plant response rating
Procedure, shortened: as §1

[14] = system: pigweed (Amaranthus retroflexus); assay: Test A preemergence; details: Amaranthus retroflexus, pre-emergence, 240 h, 0 to 100 scale where 0 is no effect and 100 is complete control, read-out: Pigweed plant response rating
[15] = system: barnyardgrass (Echinochloa crus-galli); assay: Test B flooded paddy test; details: Echinochloa crus-galli, 250 g ai/ha, Flood; 0 to 100 scale where 0 is no effect and 100 is complete control; read-out: Barnyardgrass plant response rating
Procedure, shortened: (§2)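 Rating scale 0–100 (visual, vs untreated controls) after a 13–15 d greenhouse period; application to the flood layer, 3 cm above soil and maintained; plants at 2-leaf stage when treated.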

rice (Oryra sativa) = assay: Test B flooded paddy test; details: Oryza sativa, 250 g ai/ha, Flood; 0 to 100 scale where 0 is no effect and 100 is complete control; read-out: Rice plant response rating
Procedure, shortened: as §2

[16] = system: sedge, umbrella (small-flower umbrella sedge, Cyperus difformis); assay: Test B flooded paddy test; details: Cyperus difformis, 250 g ai/ha, Flood; 0 to 100 scale where 0 is no effect and 100 is complete control; read-out: Sedge, Umbrella plant response rating
Procedure, shortened: as §2

[17] = system: ducksalad (Heteranthera limosa); assay: Test B flooded paddy test; details: Heteranthera limosa, 250 g ai/ha, Flood; 0 to 100 scale where 0 is no effect and 100 is complete control; read-out: Ducksalad plant response rating
Procedure, shortened: as §2

[18] = 125 g ai/ha, preemergence, approx. 10 d

`CC(C)Oc1cc([C@H]2CN(C)C(=O)[C@@H]2C(=O)Nc2ccccc2F)ccc1F` [Compound 1074] showed a pest or weed control at 125 g/ha (Kochia (Kochia scoparia) [1]; 125 g ai/ha, postemergence, visual injury on 0 to 100 scale (0 no effect, 100 complete control), approx. 10 d, read-out: Kochia plant response rating) of 20%, a pest or weed control at 31 g/ha (Kochia (Kochia scoparia) [1]; Postemergence, 31 g ai/ha, visual injury after approx. 10 d, 0 to 100 scale, 0 no effect, 100 complete control, read-out: Plant response rating, Kochia) of 0% and a plant injury at 125 g/ha ([2]; 125 g ai/ha, postemergence, visual injury on 0 to 100 scale (0 no effect, 100 complete control), approx. 10 d, read-out: Wheat plant response rating) of 40%. It also gave a plant injury at 31 g/ha ([2]; Postemergence, 31 g ai/ha, visual injury after approx. 10 d, 0 to 100 scale, 0 no effect, 100 complete control, read-out: Plant response rating, Wheat) of 0%, a pest or weed control at 125 g/ha ([3]; 125 g ai/ha, postemergence, visual injury on 0 to 100 scale (0 no effect, 100 complete control), approx. 10 d, read-out: Barnyardgrass plant response rating) of 90% and a pest or weed control at 31 g/ha ([3]; Postemergence, 31 g ai/ha, visual injury after approx. 10 d, 0 to 100 scale, 0 no effect, 100 complete control, read-out: Plant response rating, Barnyardgrass) of 80%. The pest or weed control at 125 g/ha ([4]; 125 g ai/ha, postemergence, visual injury on 0 to 100 scale (0 no effect, 100 complete control), approx. 10 d, read-out: Ryegrass, Italian plant response rating) was 30%, the pest or weed control at 31 g/ha ([4]; Postemergence, 31 g ai/ha, visual injury after approx. 10 d, 0 to 100 scale, 0 no effect, 100 complete control, read-out: Plant response rating, Ryegrass, Italian) was 20% and the pest or weed control at 125 g/ha ([5]; 125 g ai/ha, postemergence, visual injury on 0 to 100 scale (0 no effect, 100 complete control), approx. 10 d, read-out: Ragweed plant response rating) was 0%. For the same compound, the pest or weed control at 31 g/ha ([5]; Postemergence, 31 g ai/ha, visual injury after approx. 10 d, 0 to 100 scale, 0 no effect, 100 complete control, read-out: Plant response rating, Ragweed) was 0%, the plant injury at 125 g/ha (corn (Zea mays); 125 g ai/ha, postemergence, visual injury on 0 to 100 scale (0 no effect, 100 complete control), approx. 10 d, read-out: Corn plant response rating) was 20% and the Corn plant response rating (crop injury, 0 = no effect, 100 = complete kill) at 31 g/ha (corn (Zea mays); Postemergence, 31 g ai/ha, visual injury after approx. 10 d, 0 to 100 scale, 0 no effect, 100 complete control) was 0%. The pest or weed control at 125 g/ha ([6]; 125 g ai/ha, postemergence, visual injury on 0 to 100 scale (0 no effect, 100 complete control), approx. 10 d, read-out: Blackgrass plant response rating) was 50%, the pest or weed control at 31 g/ha ([6]; Postemergence, 31 g ai/ha, visual injury after approx. 10 d, 0 to 100 scale, 0 no effect, 100 complete control, read-out: Plant response rating, Blackgrass) was 20% and the pest or weed control at 125 g/ha ([7]; 125 g ai/ha, postemergence, visual injury on 0 to 100 scale (0 no effect, 100 complete control), approx. 10 d, read-out: Foxtail, Giant plant response rating) was 90%. The pest or weed control at 31 g/ha ([7]; Postemergence, 31 g ai/ha, visual injury after approx. 10 d, 0 to 100 scale, 0 no effect, 100 complete control, read-out: Plant response rating, Foxtail, Giant) was 70%, the pest or weed control at 125 g/ha ([8]; 125 g ai/ha, postemergence, visual injury on 0 to 100 scale (0 no effect, 100 complete control), approx. 10 d, read-out: Pigweed plant response rating) was 0% and the pest or weed control at 31 g/ha ([8]; Postemergence, 31 g ai/ha, visual injury after approx. 10 d, 0 to 100 scale, 0 no effect, 100 complete control, read-out: Plant response rating, Pigweed) was 0%. The pest or weed control at 31 g/ha (Kochia (Kochia scoparia) [9]; 31 g ai/ha, Preemergence) was 0%, the pest or weed control at 125 g/ha (Kochia (Kochia scoparia) [9]; [18]) was 20% and the pest or weed control at 31 g/ha ([10]; 31 g ai/ha, Preemergence) was 90%. For the same compound, the pest or weed control at 125 g/ha [10, 18] was 100%, the pest or weed control at 31 g/ha ([11]; 31 g ai/ha, Preemergence) was 0% and the pest or weed control at 125 g/ha [11, 18] was 50%. The pest or weed control at 31 g/ha ([12]; 31 g ai/ha, Preemergence) was 0%, the pest or weed control at 125 g/ha [12, 18] was 10% and the pest or weed control at 31 g/ha ([13]; 31 g ai/ha, Preemergence) was 100%. For the same compound, the pest or weed control at 125 g/ha [13, 18] was 100%, the pest or weed control at 31 g/ha ([14]; 31 g ai/ha, Preemergence) was 0% and the pest or weed control at 125 g/ha [14, 18] was 20%. The pest or weed control at 250 g/ha [15] was 75%, the pest or weed control at 250 g/ha (rice (Oryra sativa)) was 35% and the pest or weed control at 250 g/ha [16] was 0%. It also gave a pest or weed control at 250 g/ha [17] of 100%.
